The values that follow come from patent US20230365563A1, “QUINAZOLINE COMPOUND AND APPLICATION THEREOF” (SHANGHAI PHARMACEUTICALS HOLDING CO., LTD., priority 2020, published 2023).

One assay has as its target T1, KRAS-G12D and SOS1 (Homo sapiens, UniProt P01116, G12D).
T1 construct: purchased
Kind of assay: Inhibition of KRAS-G12D/SOS1 binding (Cisbio binding kit, 665/615 ratio), Effect Embodiment A. As to conditions: read-out: GTP-KRAS-G12D:SOS1 IC50. The method in brief:
(§1)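 Compounds are tested over eleven threefold dilution steps in duplicate, with final DMSO at 1%.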

Another assay has as its target T2, KRAS_G12D and cRAF (Homo sapiens, UniProt P01116, G12D).
T2 construct: purchased
Kind of assay: Inhibition of KRAS_G12D/cRAF binding (Cisbio binding kit, 665/615 ratio), Effect Embodiment B. As to conditions: read-out: GTP-KRAS-G12D:CRAF IC50. The method in brief: as §1

Another assay addresses T3, KRAS_WT and SOS1 (Homo sapiens, UniProt P01116).
T3 construct: purchased
Kind of assay: Inhibition of KRAS_WT/SOS1 binding (Cisbio binding kit, 665/615 ratio), Effect Embodiment C. Particulars: read-out: GTP-KRAS-WT:SOS1 IC50. The method in brief:
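Compounds tested as 3-fold, 11-point dilutions in duplicate at 1% DMSO final against the KRAS_WT/SOS1 binding system. IC50 derived by nonlinear regression fit.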

Counter-ions that a name gives are not always drawn.

T2 sequence (P01116 1-188 isoform P01116-2 G12D): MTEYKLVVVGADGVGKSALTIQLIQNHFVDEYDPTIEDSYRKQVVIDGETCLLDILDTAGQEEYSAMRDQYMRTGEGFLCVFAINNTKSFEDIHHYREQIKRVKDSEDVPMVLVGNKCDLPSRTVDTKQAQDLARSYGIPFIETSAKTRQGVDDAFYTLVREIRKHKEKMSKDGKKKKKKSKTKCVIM
T1 sequence (P01116 1-188 isoform P01116-2 G12D): as above
T3 sequence (P01116 1-188 isoform P01116-2): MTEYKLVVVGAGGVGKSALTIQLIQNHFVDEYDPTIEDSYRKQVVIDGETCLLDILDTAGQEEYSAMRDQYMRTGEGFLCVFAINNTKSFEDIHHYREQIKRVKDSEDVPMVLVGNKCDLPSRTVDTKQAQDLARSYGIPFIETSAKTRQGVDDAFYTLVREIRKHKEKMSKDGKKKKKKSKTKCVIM

Take `CN1CC(COc2nc(N3CC4CCC(C3)N4)c3cc(Cl)c(-c4cc(O)cc5ccccc45)c(F)c3n2)C1` (single isomer, unassigned) [Compound 91, 4-((S or R)-4-((1R,5S)-3,8-diazabicyclo[3.2.1]octan-3-yl)-6-chloro-8-fluoro-2-((1-methylazetidin-3-yl)methoxy)quinazolin-7-yl)naphthalen-2-ol tritrifluoroacetate]: the IC50 was 15.1 nM on KRAS-G12D and SOS1; 78.2 nM at KRAS_G12D and cRAF; 1100 nM on KRAS_WT and SOS1.
On to `Oc1cc(-c2c(Cl)cc3c(N4CC5CCC(C4)N5)nc(OCCCN4CCNCC4)nc3c2F)c2ccccc2c1` (single isomer, unassigned) [Compound 92, 4-((S or R)-4-((1R,5S)-3,8-diazabicyclo[3.2.1]octan-3-yl)-6-chloro-8-fluoro-2-(3-(piperazin-1-yl)propoxy)quinazolin-7-yl)naphthalen-2-ol dihydrochloride], for which the concentration for half-maximal inhibition (IC50) amounted to 37.4 nM at KRAS-G12D and SOS1; 139 nM on KRAS_G12D and cRAF; 4710 nM at KRAS_WT and SOS1.
The like results for `CNCCCOc1nc(N2CC3CCC(C2)N3)c2cc(Cl)c(-c3cc(O)cc4ccccc34)c(F)c2n1` (single isomer, unassigned) [Compound 93, 4-((S or R)-4-((1R,5S)-3,8-diazabicyclo[3.2.1]octan-3-yl)-6-chloro-8-fluoro-2-(3-(methylamino)propoxy)quinazolin-7-yl)naphthalen-2-ol dihydrochloride] were, in that order, 12.3 nM, 82.1 nM and 2030 nM.
The like results for `NCCCOc1nc(N2CC3CCC(C2)N3)c2cc(Cl)c(-c3cc(O)cc4ccccc34)c(F)c2n1` (single isomer, unassigned) [Compound 94, 4-((S or R)-2-(3-aminopropoxy)-4-((1R,5S)-3,8-diazabicyclo[3.2.1]octan-3-yl)-6-chloro-8-fluoroquinazolin-7-yl)naphthalen-2-ol dihydrochloride] were, in that order, 53.2 nM, 164 nM and 5220 nM.
The like results for `NCCCCOc1nc(N2CC3CCC(C2)N3)c2cc(Cl)c(-c3cc(O)cc4ccccc34)c(F)c2n1` (single isomer, unassigned) [Compound 95, 4-((S or R)-2-(4-aminobutoxy)-4-((1R,5S)-3,8-diazabicyclo[3.2.1]octan-3-yl)-6-chloro-8-fluoroquinazolin-7-yl)naphthalen-2-ol dihydrochloride] were, in that order, 48.2 nM, 284 nM and 6660 nM.
Regarding `CN1CCCC1CCOc1nc(N2CC3CCC(C2)N3)c2cc(Cl)c(-c3cc(O)cc4ccccc34)c(F)c2n1` (single isomer, unassigned) [Compound 96a, 4-((S or R)-4-((1R,5S)-3,8-diazabicyclo[3.2.1]octan-3-yl)-6-chloro-8-fluoro-2-(2-((S or R)-1-methylpyrrolidin-2-yl)ethoxy)quinazolin-7-yl)naphthalen-2-ol], the 50% inhibitory concentration (IC50) on KRAS-G12D and SOS1 was 22 nM; on KRAS_G12D and cRAF it was 88.5 nM; at KRAS_WT and SOS1 it was 1540 nM.
Regarding `CN1CCCC1CCOc1nc(N2CC3CCC(C2)N3)c2cc(Cl)c(-c3cc(O)cc4ccccc34)c(F)c2n1` (single isomer, unassigned) [Compound 96b, 4-((S or R)-4-((1R,5S)-3,8-diazabicyclo[3.2.1]octan-3-yl)-6-chloro-8-fluoro-2-(2-((R or S)-1-methylpyrrolidin-2-yl)ethoxy)quinazolin-7-yl)naphthalen-2-ol], the IC50 on KRAS-G12D and SOS1 came out at 34.3 nM; on KRAS_G12D and cRAF, 156 nM; at KRAS_WT and SOS1, 2970 nM.
For the molecule `Oc1cc(-c2c(Cl)cc3c(N4CC5CCC(C4)N5)nc(OCC4(CN5CCCC5)CC4)nc3c2F)c2ccccc2c1` (single isomer, unassigned) [Compound 97, 4-((S or R)-4-((1R,5S)-3,8-diazabicyclo[3.2.1]octan-3-yl)-6-chloro-8-fluoro-2-((1-(pyrrolidin-1-ylmethyl)cyclopropyl)methoxy)quinazolin-7-yl)naphthalen-2-ol], the IC50 was determined as 18.9 nM on KRAS-G12D and SOS1; 15.6 nM at KRAS_G12D and cRAF; 291 nM on KRAS_WT and SOS1.

Usually IC50 stands for the concentration at which inhibition is half-maximal.
